Activity calls are given as the source filed them.
How the values were obtained:
Type in all cases: functional, organism-based
Escherichia coli = assay: Antibacterial activity against Escherichia coli at 50 ug by agar diffusion method
[1] = test system: Mycolicibacterium smegmatis; assay: Antibacterial activity against Mycobacterium smegmatis at 50 ug by agar diffusion method
Enterococcus faecalis = assay: Antibacterial activity against Enterococcus faecalis at 50 ug by agar diffusion method
Pseudomonas aeruginosa = assay: Antibacterial activity against Pseudomonas aeruginosa at 50 ug by agar diffusion method
Staphylococcus aureus = assay: Antibacterial activity against Staphylococcus aureus at 50 ug by agar diffusion method

Measured: Activity

CC1(C)CC[C@]2(C(=O)O)CC[C@]3(C)C(=CC[C@@H]4[C@@]5(C)CC[C@H](O[C@@H]6O[C@H](CO)[C@@H](O)[C@H](O[C@@H]7O[C@H](CO)[C@H](O)[C@H](O)[C@H]7O)[C@H]6O)[C@@](C)(CO)[C@@H]5CC[C@]43C)[C@@H]2C1
inactive: all assays above

CC1(C)CC[C@]2(C(=O)O[C@@H]3O[C@H](CO)[C@@H](O)[C@H](O)[C@H]3O)CC[C@]3(C)C(=CC[C@@H]4[C@@]5(C)CC[C@H](O[C@@H]6O[C@H](CO)[C@H](O)[C@H](O)[C@H]6O[C@@H]6O[C@H](CO)[C@@H](O)[C@H](O)[C@H]6O)[C@@](C)(CO)[C@@H]5CC[C@]43C)[C@@H]2C1
inactive: all assays above

CC1(C)CC[C@]2(C(=O)O[C@@H]3O[C@H](CO)[C@@H](O)[C@H](O)[C@H]3O)CC[C@]3(C)C(=CC[C@@H]4[C@@]5(C)C[C@H](O)[C@H](O[C@@H]6O[C@H](C(=O)O)[C@@H](O)[C@H](O[C@@H]7O[C@H](CO)[C@H](O[C@@H]8O[C@H](CO)[C@H](O)[C@H](O[C@@H]9O[C@H](CO)[C@H](O)[C@H](O[C@@H]%10OC[C@@H](O)[C@H](O)[C@H]%10O)[C@H]9O)[C@H]8O)[C@H](O)[C@H]7O)[C@H]6O)C(C)(C)[C@@H]5CC[C@]43C)[C@@H]2C1
inactive: all assays above

CC1(C)CC[C@]2(C(=O)O[C@@H]3O[C@H](CO)[C@@H](O)[C@H](O)[C@H]3O)CC[C@]3(C)C(=CC[C@@H]4[C@@]5(C)C[C@H](O)[C@H](O[C@@H]6O[C@H](C(=O)O)[C@@H](O)[C@H](O[C@@H]7O[C@H](CO)[C@H](O)[C@H](O)[C@H]7O)[C@H]6O)C(C)(C)[C@@H]5CC[C@]43C)[C@@H]2C1
inactive: all assays above

CC1(C)CC[C@]2(C(=O)O)CC[C@]3(C)C(=CC[C@@H]4[C@@]5(C)C[C@H](O)[C@H](O[C@@H]6O[C@H](CO)[C@@H](O)[C@H](O[C@@H]7O[C@H](CO)[C@H](O)[C@H](O)[C@H]7O)[C@H]6O)[C@@](C)(CO)[C@@H]5CC[C@]43C)[C@@H]2C1
inactive: all assays above
